Experiments:
[1] = target: T1, UP-1 mutant receptor (hPR) (Homo sapiens, UniProt P06401); assay: Yeast transcription assay (β-galactosidase activity); format: cell-based; details: for activation of mutant receptor: different concentrations (FIG. 5A); for transcriptional activity (in words): 1 μM, 4 hours
T1 construct: the wild type receptor is truncated by 54 authentic amino acids and 12 novel amino acids are added at the C-terminus; expressed in transfected cells; host or cells: Saccharomyces cerevisiae BJ3505 transformed with the UP-1 plasmid
T1 sequence (P06401 with tags, fused parts or gaps): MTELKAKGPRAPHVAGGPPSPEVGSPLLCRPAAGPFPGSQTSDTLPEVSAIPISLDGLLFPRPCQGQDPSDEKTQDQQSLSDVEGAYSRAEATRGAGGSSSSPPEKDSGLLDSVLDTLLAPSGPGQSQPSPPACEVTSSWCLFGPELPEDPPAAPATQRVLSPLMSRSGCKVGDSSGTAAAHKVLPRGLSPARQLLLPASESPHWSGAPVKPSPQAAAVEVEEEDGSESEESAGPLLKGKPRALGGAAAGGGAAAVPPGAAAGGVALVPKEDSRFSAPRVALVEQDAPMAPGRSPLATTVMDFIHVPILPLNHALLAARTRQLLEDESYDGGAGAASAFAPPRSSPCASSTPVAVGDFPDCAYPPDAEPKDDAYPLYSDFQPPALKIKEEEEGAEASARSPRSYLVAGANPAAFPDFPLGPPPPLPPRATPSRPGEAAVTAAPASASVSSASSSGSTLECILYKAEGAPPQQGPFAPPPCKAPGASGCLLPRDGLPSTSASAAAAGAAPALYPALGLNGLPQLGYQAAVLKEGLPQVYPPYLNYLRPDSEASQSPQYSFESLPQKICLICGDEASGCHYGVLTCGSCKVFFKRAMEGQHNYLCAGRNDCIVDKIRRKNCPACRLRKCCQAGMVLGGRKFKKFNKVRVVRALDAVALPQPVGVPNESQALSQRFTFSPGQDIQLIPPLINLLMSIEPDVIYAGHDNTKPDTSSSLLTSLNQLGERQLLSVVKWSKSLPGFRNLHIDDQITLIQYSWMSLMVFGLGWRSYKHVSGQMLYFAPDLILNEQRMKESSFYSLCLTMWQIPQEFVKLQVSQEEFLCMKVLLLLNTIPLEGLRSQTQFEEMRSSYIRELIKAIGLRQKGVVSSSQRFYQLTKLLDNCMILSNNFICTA
Description: (§1) Saccharomyces cerevisiae cells containing YEphPRB and the reporter plasmid were grown overnight at 30° C. in minimal media containing 2% glucose. The cells were subcultured in fresh medium and allowed to grow until early mid-log phase (O.D.600nm=1.0). Induction of receptor was initiated by the addition of 100 μM copper sulfate to the culture. Cells were harvested by centrifugation at 1,500 ×g for 10 minutes and resuspended in the appropriate buffer. This and all subsequent steps of analysis of the yeast extracts were done at 4° C.
(§2) When the cell density reached O.D.600nm=1.0, hormones were added to the cultures.
(§3) The plate assays used to identify the receptor mutants are qualitative in nature. To further characterize the properties of UP-1, the activity of the receptor mutants was compared with that of the wild type receptor in a transcription assay. […] The β-galactosidase activity in the cell cytosol was then measured.

[2] = target: T2, wild type receptor (hPR-B) (Homo sapiens, UniProt P06401); assay: as above; format: cell-based, yeast (Saccharomyces cerevisiae); details: 1 μM; for transcriptional activity (in words): 4 hours
T2 construct: expressed in transfected cells; host or cells: Saccharomyces cerevisiae BJ3505 transformed with YEphPR-B
T2 sequence (P06401 1-933): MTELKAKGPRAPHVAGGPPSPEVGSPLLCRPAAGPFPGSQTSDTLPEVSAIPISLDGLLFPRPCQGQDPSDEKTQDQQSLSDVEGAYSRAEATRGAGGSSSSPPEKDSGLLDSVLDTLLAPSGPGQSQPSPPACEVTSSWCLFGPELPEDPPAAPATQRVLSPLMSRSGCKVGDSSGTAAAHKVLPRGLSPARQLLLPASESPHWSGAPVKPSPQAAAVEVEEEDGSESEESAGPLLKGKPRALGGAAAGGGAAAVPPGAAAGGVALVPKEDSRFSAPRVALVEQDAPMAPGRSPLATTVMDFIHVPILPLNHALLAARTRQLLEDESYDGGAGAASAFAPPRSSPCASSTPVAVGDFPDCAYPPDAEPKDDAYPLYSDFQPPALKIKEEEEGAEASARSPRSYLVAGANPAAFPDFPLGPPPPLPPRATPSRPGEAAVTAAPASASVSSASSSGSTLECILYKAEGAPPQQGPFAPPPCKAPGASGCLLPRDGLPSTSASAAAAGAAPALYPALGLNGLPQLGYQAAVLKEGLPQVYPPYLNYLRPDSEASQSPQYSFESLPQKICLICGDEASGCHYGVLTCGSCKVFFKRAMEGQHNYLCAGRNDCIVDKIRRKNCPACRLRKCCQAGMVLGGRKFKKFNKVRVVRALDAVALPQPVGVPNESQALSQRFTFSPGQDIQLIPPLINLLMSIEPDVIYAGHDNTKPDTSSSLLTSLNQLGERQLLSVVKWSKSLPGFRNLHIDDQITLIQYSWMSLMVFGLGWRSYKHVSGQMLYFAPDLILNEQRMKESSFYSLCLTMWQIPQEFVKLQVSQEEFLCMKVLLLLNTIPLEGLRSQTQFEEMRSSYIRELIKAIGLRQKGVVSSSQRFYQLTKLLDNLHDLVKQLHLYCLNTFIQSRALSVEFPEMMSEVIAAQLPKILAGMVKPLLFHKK
Description: as §1, §2, §3

[3] = target: T3, YEphPR-B879 truncated receptor (Homo sapiens, UniProt P06401); assay: Yeast transcription assay; format: cell-based
T3 construct: YEphPR-B879, containing a stop codon corresponding to amino acid 880; expressed in transfected cells; host or cells: Saccharomyces cerevisiae (yeast)
T3 sequence (P06401 1-879): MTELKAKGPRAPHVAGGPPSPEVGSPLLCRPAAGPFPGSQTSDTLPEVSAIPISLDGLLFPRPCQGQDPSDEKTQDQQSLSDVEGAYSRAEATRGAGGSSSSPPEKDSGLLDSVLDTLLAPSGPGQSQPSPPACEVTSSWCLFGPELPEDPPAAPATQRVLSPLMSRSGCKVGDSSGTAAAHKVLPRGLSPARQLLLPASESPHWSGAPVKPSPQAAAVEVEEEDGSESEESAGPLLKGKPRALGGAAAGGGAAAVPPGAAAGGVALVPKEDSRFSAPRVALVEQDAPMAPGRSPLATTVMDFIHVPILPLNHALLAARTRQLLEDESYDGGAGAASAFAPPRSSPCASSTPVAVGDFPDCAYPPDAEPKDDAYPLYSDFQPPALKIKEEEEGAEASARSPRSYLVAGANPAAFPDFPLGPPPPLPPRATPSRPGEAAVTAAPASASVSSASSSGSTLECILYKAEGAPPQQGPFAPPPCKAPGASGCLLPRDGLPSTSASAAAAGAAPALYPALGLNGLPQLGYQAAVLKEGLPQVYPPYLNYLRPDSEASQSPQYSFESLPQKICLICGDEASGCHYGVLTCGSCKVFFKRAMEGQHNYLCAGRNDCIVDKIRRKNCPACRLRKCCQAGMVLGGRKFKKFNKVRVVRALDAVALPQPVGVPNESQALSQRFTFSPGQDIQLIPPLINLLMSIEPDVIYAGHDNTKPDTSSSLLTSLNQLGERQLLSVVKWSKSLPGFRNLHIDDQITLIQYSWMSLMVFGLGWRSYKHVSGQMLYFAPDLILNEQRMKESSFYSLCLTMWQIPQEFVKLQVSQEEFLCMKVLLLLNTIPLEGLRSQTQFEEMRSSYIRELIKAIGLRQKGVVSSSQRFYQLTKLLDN
Description: as §2
(§4) CJ236 cells were infected with mpPR90 (an M13 plasmid containing hPR cDNA).
(§5) Yeast cells were grown in the presence of 100 μM CuSO4. Transcriptional analysis was done as described above. Experiments were done in triplicate and transcriptional activities were normalized with respect to protein.

[4] = target: T4, YEphPRB891 truncated receptor (Homo sapiens, UniProt P06401); assay: Yeast transcription assay; format: cell-based
T4 construct: YEphPRB891, containing a stop codon at amino acid 892; expressed in transfected cells; host or cells: Saccharomyces cerevisiae (yeast)
T4 sequence (P06401 1-891): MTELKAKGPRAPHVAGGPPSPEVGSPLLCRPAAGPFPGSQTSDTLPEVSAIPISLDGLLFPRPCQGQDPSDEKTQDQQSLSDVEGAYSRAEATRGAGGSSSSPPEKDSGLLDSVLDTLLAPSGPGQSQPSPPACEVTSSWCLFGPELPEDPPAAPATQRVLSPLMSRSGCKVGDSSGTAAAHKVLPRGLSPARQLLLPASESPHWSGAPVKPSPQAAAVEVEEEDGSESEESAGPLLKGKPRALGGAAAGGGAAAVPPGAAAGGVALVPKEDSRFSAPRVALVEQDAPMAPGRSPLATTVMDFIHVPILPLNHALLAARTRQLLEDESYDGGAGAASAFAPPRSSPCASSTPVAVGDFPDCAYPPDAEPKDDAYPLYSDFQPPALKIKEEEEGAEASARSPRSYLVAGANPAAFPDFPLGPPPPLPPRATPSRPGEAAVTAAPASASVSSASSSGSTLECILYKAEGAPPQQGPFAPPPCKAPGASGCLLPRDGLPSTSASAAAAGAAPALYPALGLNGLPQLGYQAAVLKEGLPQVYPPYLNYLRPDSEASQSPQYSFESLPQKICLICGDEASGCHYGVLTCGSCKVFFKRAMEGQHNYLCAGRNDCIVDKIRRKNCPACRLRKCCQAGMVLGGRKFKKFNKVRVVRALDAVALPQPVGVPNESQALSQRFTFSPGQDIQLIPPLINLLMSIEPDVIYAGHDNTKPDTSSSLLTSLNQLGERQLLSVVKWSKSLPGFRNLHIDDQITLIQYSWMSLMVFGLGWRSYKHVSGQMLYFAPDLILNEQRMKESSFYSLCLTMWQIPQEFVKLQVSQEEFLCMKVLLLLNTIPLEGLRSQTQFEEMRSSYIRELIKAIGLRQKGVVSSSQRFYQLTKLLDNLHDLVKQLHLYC
Description: as §2, §4, §5

891 mutant (phPR-B891) = target: T5, 891 mutant (phPR-B891) (Homo sapiens, UniProt P06401); assay: Transient transfection CAT assay ([…]) in HeLa cells; format: cell-based; details: 10^−7M
T5 construct: YEphPRB891, containing a stop codon at amino acid 892; expressed in transfected cells; host or cells: HeLa cells (A16)
T5 sequence (P06401 1-891): T4 sequence (P06401 1-891)
Description: (§6) Five μg of chloramphenicol acetyltransferase (CAT) reporter plasmid, containing two copies of a PRE/GRE from the tyrosine amino transferase gene linked to the thymidine kinase promoter ([…]), were used in transient cotransfection experiments together with 5 μg of wild type or mutant receptor DNAs.
(§7) CAT assays were performed as described above. In panel (B), CV-1 cells were transiently transfected as in (A).

wild type PR (phPR-B) = target: T6, wild type PR (phPR-B) (Homo sapiens, UniProt P06401); assay: as above; format: cell-based; details: 10^−7M, 48 hours
T6 sequence (P06401 1-933): T2 sequence (P06401 1-933)
Description: as §6, §7

[5] = target: T7, wild type receptor (phPR-B) (Homo sapiens, UniProt P06401); assay: Transient transfection CAT assay in CV-1 cells; format: cell-based, monkey
T7 sequence (P06401 1-933): T2 sequence (P06401 1-933)
Description: as §6, §7
Cell-type specific factors can influence the activity of the transactivating domains of steroid receptors. In order to evaluate this possibility, wild type and mutant receptors were transfected into CV-1 cells.

| transcriptional activity (in words) [1] | transcriptional activity (in words) [2] | Compound | other results |
| --- | --- | --- | --- |
| inactive | inactive | C[C@@H]1C[C@H]2[C@@H]3CCC4=CC(=O)C=C[C@]4(C)[C@@]3(F)[C@@H](O)C[C@]2(C)[C@@]1(O)C(=O)CO [dexamethasone] |  |
| inactive | inactive | COc1ccc2c(c1)CCC(c1ccccc1)=C2c1ccc(OCCN2CCCC2)cc1 [nafoxidine] |  |

The remaining lines, values behind:

| Compound | transcriptional activity (in words) [1] | transcriptional activity (in words) [2] | other results |
| --- | --- | --- | --- |
| CN(C)c1ccc(C2CC3(C)C(CCC34CCCO4)C3CCC4=CC(=O)CCC4=C23)cc1 (stereo not drawn) [Org31376, (11β,14β,17α)-4′,5′-dihydro-11-(4-dimethylaminophenyl)-[spiroestra-4,9-diene-17,2′(3′H)-furan]-3-one] |  |  | activation of mutant receptor [1]: activated |
| C[C@H]1CC2=CC(=O)CCC2=C2[C@@H]1[C@@H]1CC[C@@]3(CCCO3)[C@@]1(C)C[C@@H]2c1ccc(N(C)C)cc1 [Org31806, (7β,11β,17β)-11-(4-dimethylaminophenyl)-7-methyl-4′,5′-dihydrospiro[ester-4,9-diene-17,2′(3′H)-furan]-3-one] |  |  | activation of mutant receptor [1]: activated |
| CCC(=O)[C@@]1(C)CC[C@H]2[C@@H]3CCC4=CC(=O)CCC4=C3CC[C@@]21C [R5020] | had no effect |  |  |
| C[C@]12CCC(=O)C=C1CC[C@@H]1[C@@H]2[C@@H](O)C[C@@]2(C)[C@H]1CC[C@]2(O)C(=O)CO [cortisol] | inactive | inactive |  |
| C[C@]12CC[C@@H]3c4ccc(O)cc4CC[C@H]3[C@@H]1CC[C@@H]2O [estradiol] | inactive | inactive |  |
| CC(=O)[C@H]1CC[C@H]2[C@@H]3CCC4=CC(=O)CC[C@]4(C)[C@H]3CC[C@]12C [progesterone] |  |  | induction of transcription [2]: greater than 60 fold; activation of transcription [3]: inactive; activation of transcription [4]: inactive; induction of CAT activity (891 mutant (phPR-B891)): no activity; induction of transcription of CAT gene reporter (wild type PR (phPR-B)): 3- to 4 fold; receptor activation (CAT) [5]: activated |
